US20120322125A1, “CONTROL OF CONTAMINANT MICROORGANISMS IN FERMENTATION PROCESSES WITH SYNERGISTIC FORMULATIONS CONTAINING PEROXIDE COMPOUND AND QUATERNARY AMMONIUM COMPOUND” (E. I. DU PONT DE NEMOURS AND COMPANY, priority 2010, published 2012)

Key:
[1] = test system: lactic acid bacteria (LAB) species (Lactobacillus brevis, Lactobacillus plantarum, Lactobacillus paracasei); experiment: Viable count of lactic acid bacteria cocktail in treated molasses medium; type: cell-based; conditions: for Viable Population: LAB in molasses medium, 32° C.
Description: (§1) A fermentation broth was prepared by diluting 1 part molasses with 3 parts water as is commonly practiced in molasses-based fermentation processes. A cocktail of three lactic acid bacteria (LAB) species (Lactobacillus brevis, Lactobacillus plantarum, Lactobacillus paracasei) was concurrently prepared by growing an overnight culture of each bacteria in deMann-Rogosa-Sharpe (MRS) broth (available from Difco Laboratories, Inc., Sparks, Md.) at 32° C. in a shaking incubator, then combining the broth to make up a mixed culture. A separate overnight culture of Saccharomyces cerevisiae (inoculant yeast) was prepared by growing an overnight culture in Yeast Peptone Dextrose (YPD) broth (available from Difco Laboratories Inc., Sparks, Md.). A potion of the molasses medium was inoculated with the cocktail of LAB to result in approximately 1×10^6 colony forming units (CFU) per ml of medium. A separate portion was inoculated with the yeast to result in approximately 6×10^5 CFU/ml. Portions of the inoculated molasses medium were treated with hydrogen peroxide (HP), quaternary ammonium compound (didecyl dimethyl ammonium chloride) or combinations of the two as outlined below:
(§2) Treated samples were incubated at 32° C. in a shaking incubator, following which serial dilutions were made in phosphate buffered saline (PBS) before plating the dilutions on MRS agar and Potato Dextrose Agar (PDA) plates for viable count determination. The plates were incubated at 32° C. for 48 hrs.

[2] = test system: Saccharomyces cerevisiae (inoculant yeast); experiment: Viable count of inoculant yeast in treated molasses medium; type: cell-based; conditions: for Viable Population: S. cerevisiae in molasses medium, 32° C.
Description: as §1, §2

CCCCCCCCCC[N+](C)(C)CCCCCCCCCC.[Cl-] [QAC, didecyl dimethyl ammonium chloride]
reduction of the LAB population ([1]; 100 ppm QAC by itself): did not reduce
Viable Population ([1]; 100 ppm QAC): 1.19 × 10^6 CFU/ml
Viable Population ([1]; 150 ppm QAC): 1.16 × 10^6 CFU/ml
Viable Population ([2]; 100 ppm QAC): 5.0 × 10^5 CFU/ml
Viable Population ([2]; 150 ppm QAC): 3.5 × 10^5 CFU/ml
effects on the viability of the inoculant yeast ([2]; similar concentrations of QAC and HP, alone or combined): did not have any significant effects

OO [HP, hydrogen peroxide]
Viable Population ([1]; 75 ppm HP): 4.5 × 10^5 CFU/ml
reduction of the viable LAB population ([1]; 100 ppm HP by itself): about 1 log CFU/ml
Viable Population ([1]; 100 ppm HP): 8.1 × 10^4 CFU/ml
